The values that follow come from patent US8748426B2, “Inhibitors of diacylglycerol acyl transferase” (Piramal Enterprises Limited, priority 2009, dated 2014).

The target in the first assay is T1, hDGAT1 (Homo sapiens, UniProt O75907).
T1 sequence (O75907 1-488): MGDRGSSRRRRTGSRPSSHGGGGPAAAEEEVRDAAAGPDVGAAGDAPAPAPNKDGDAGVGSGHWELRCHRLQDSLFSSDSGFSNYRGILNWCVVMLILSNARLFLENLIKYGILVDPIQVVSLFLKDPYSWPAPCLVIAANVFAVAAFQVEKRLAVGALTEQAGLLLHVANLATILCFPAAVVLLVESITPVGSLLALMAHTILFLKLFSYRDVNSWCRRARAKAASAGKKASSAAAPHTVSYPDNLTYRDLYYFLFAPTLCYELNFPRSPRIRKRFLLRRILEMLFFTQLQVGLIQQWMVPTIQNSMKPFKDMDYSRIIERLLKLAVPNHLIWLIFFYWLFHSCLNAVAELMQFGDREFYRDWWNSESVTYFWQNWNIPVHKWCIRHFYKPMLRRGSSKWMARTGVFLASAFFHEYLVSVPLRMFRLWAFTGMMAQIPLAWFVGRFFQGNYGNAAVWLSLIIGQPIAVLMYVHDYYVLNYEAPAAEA
The experiment in a line: In-vitro DGAT1 assay (14C oleoyl CoA, hDGAT1 microsomes from Sf9 cells). To be noted: at 1 μM.
With `CC(C)[C@@H](C(=O)O)N1Cc2cc(-c3ccc(NC(=S)Nc4ccc(C#N)cc4)cc3)ccc2C1=O` [Example 269, (S)-2-(5-(4-(3-(4-Cyanophenyl)thioureido)phenyl)-1-oxoisoindolin-2-1)-3-methyl butanoic acid], the “% Inhibition of hDGAT1” value is on record as “+ (10-50% Inhibition)”.

For the compound `O=C(Nc1ccc(-c2ccc3c(c2)C(=O)N(C2(C(=O)O)CCC2)C3)cc1)c1ccc(-c2ccccc2)cc1` [Example 576, 1-(6-(4-([1,1′-Biphenyl]-4-ylcarboxamido)phenyl)-1-oxoisoindolin-2-yl)cyclo butanecarboxylic acid], the “% Inhibition of hDGAT1” value is recorded as “++ (>50% Inhibition)”.

For `O=C(Nc1ccc(-c2ccc3c(c2)C(=O)N(C24C[C@@H]5C[C@@H](CC(C(=O)O)(C5)C2)C4)C3)cc1)c1ccc(C(F)(F)F)cc1` [Example 571, (1r,3s,5R,7S)-3-(1-Oxo-6-(4-(4-(trifluoromethyl)benzamido)phenyl)isoindolin-2-yl)adamantane-1-carboxylic acid], the “% Inhibition of hDGAT1” value was “++ (>50% Inhibition)”.

Staying with this assay, now noted: read-out: % Inhibition of hDGAT1.
As for `CC(C)[C@@H](C(=O)O)N1Cc2ccc(-c3ccc(NC(=O)c4ccc5ccccc5c4)cc3)cc2C1=O` [Example 122, (S)-2-(6-(4-(2-Naphthamido)phenyl)-1-oxoisoindolin-2-yl)-3-methylbutanoic acid], the inhibition at 1 µM is > 50%.

For `CC(C)[C@@H](C(=O)O)N1Cc2ccc(-c3ccc(NC(=O)Nc4ccc(F)cc4F)cc3)cc2C1=O` [Example 10, (S)-2-(6-(4-(3-(2,4-Difluorophenyl)ureido)phenyl)-1-oxoisoindolin-2-yl)-3-methylbutanoic acid], the inhibition at 1 µM lay in the range of 10 to 50%.

In the case of `CC(C)(C(=O)O)N1Cc2ccc(-c3ccc(NC(=O)c4ccc(OC(F)(F)F)cc4)cc3)cc2C1=O` [Example 523, 2-Methyl-2-(1-oxo-6-(4-(4-(trifluoromethoxy)benzamido)phenyl)isoindolin-2-yl)propanoic acid], the inhibition at 1 µM lay in the range of 10 to 50%.

As to `CC(C)[C@@H](C(=O)O)N1Cc2ccc(-c3ccc(NC(=O)c4ccc(N5CCCCC5)nc4)cc3)cc2C1=O` [Example 215, (S)-3-Methyl-2-(1-oxo-6-(4-(6-(piperidin-1-yl)nicotinamido)phenyl)isoindolin-2-yl)butanoic acid], the inhibition at 1 µM is > 50%.

As for `CC(C)(C(=O)O)N1Cc2ccc(-c3ccc(NC(=O)c4ccc(Cl)cc4)cc3)cc2C1=O` [Example 521, 2-(6-(4-(4-Chlorobenzamido)phenyl)-1-oxoisoindolin-2-yl)-2-methylpropanoic acid], the inhibition at 1 µM was > 50%.

Regarding `Cc1ccc(NC(=O)Nc2ccc(-c3ccc4c(c3)CN([C@H](C(=O)O)C(C)C)C4=O)cc2)cc1` [Example 241, (S)-3-Methyl-2-(1-oxo-5-(4-(3-p-tolylureido)phenyl)isoindolin-2-yl)butanoic acid], the inhibition at 1 µM was > 50%.

As to `Cc1cc(C(=O)Nc2ccc(-c3ccc4c(c3)C(=O)N([C@H](C(=O)O)C(C)C)C4)cc2)ccc1F` [Example 162, (S)-2-(6-(4-(4-Fluoro-3-methylbenzamido)phenyl)-1-oxoisoindolin-2-yl)-3-methyl butanoic acid], the inhibition at 1 µM was > 50%.

Take `CC(C)[C@@H](C(=O)O)N1Cc2ccc(-c3ccc(NC(=O)c4ccccc4Oc4ccccc4)cc3)cc2C1=O` [Example 152, (S)-3-Methyl-2-(1-oxo-6-(4-(2-phenoxybenzamido)phenyl)isoindolin-2-yl)butanoic acid]: the inhibition at 1 µM is > 50%.

Turning to `C[C@@H](C(=O)O)N1Cc2cc(-c3ccc(NC(=O)Nc4cccc(C(F)(F)F)c4)cc3)ccc2C1=O` [Example 367, (S)-2-(1-Oxo-5-(4-(3-(3-(trifluoromethyl)phenyl)ureido)phenyl)isoindolin-2-yl)propanoic acid], the inhibition at 1 µM is > 50%.

Take `O=C(Nc1ccc(-c2ccc3c(c2)CN(C2(C(=O)O)CCCC2)C3=O)cc1)Nc1cccc(C(F)(F)F)c1` [Example 370, 1-(1-Oxo-5-(4-(3-(3-(trifluoromethyl)phenyl)ureido)phenyl)isoindolin-2-yl)cyclopentanecarboxylic acid]: the inhibition at 1 µM was in the range of 10 to 50%.

Take `CC(C)[C@@H](C(=O)O)N1Cc2ccc(-c3ccc(NS(=O)(=O)c4ccc(C(F)(F)F)cc4)cc3)cc2C1=O` [Example 92, (S)-3-Methyl-2-(1-oxo-6-(4-(4-(trifluoromethyl)phenylsulfonamido)phenyl)isoindolin-2-yl)butanoic acid]: the inhibition at 1 µM fell in the range of 10 to 50%.

As for `CC(C)[C@@H](C(=O)O)N1Cc2ccc(-c3ccc(NC(=O)c4ccc(-c5cncnc5)cc4)cc3)cc2C1=O` [Example 653, (S)-3-Methyl-2-(1-oxo-6-(4-(4-(pyrimidin-5-yl)benzamido)phenyl)isoindolin-2-yl)butanoic acid], the inhibition at 1 µM lay in the range of 10 to 50%.

Turning to `CC(C)[C@@H](C(=O)O)N1Cc2cc(-c3ccc(NC(=O)NC4CCCCC4)cc3)ccc2C1=O` [Example 235, (S)-2-(5-(4-(3-Cyclohexylureido)phenyl)-1-oxoisoindolin-2-yl)-3-methyl butanoic acid], the inhibition at 1 µM was in the range of 10 to 50%.

`CC(C)[C@@H](C(=O)O)N1Cc2ccc(-c3ccc(NC(=O)Nc4ccccc4Cl)cn3)cc2C1=O` [Example 394, (S)-2-(6-(5-(3-(2-Chlorophenyl)ureido)pyridin-2-yl)-1-oxoisoindolin-2-yl)-3-methylbutanoic acid]: the inhibition at 1 µM is > 50%.

For `CC(C)[C@@H](C(=O)O)N1Cc2ccc(-c3ccc(NC(=O)c4ccc(F)c(F)c4)cc3)cc2C1=O` [Example 140, (S)-2-(6-(4-(3,4-Difluorobenzamido)phenyl)-1-oxoisoindolin-2-yl)-3-methyl butanoic acid], the inhibition at 1 µM was > 50%.

Take `CC(C)[C@@H](C(=O)O)N1Cc2cc(-c3ccc(NS(=O)(=O)c4cccc(Cl)c4)cc3)ccc2C1=O` [Example 295, (S)-2-(5-(4-(3-Chlorophenylsulfonamido)phenyl)-1-oxoisoindolin-2-yl)-3-methyl butanoic acid]: the inhibition at 1 µM is 10 to 50%.

In the case of `CCCCOc1ccc(C(=O)Nc2ccc(-c3ccc4c(c3)C(=O)N([C@H](C(=O)O)C(C)C)C4)c(OC)c2)cc1` [Example 460, (S)-2-(6-(4-(4-Butoxybenzamido)-2-methoxyphenyl)-1-oxoisoindolin-2-yl)-3-methylbutanoic acid], the inhibition at 1 µM is 10 to 50%.

Consider `COc1ccc(NC(=S)Nc2ccc(-c3ccc4c(c3)CN([C@H](C(=O)O)C(C)C)C4=O)cc2)cc1` [Example 261, (S)-2-(5-(4-(3-(4-Methoxyphenyl)thioureido)phenyl)-1-oxoisoindolin-2-yl)-3-methylbutanoic acid], for which the inhibition at 1 µM was in the range of 10 to 50%.

Take `O=C(O)CN1Cc2cc(-c3ccc(NC(=O)Nc4cccc(C(F)(F)F)c4)cc3)ccc2C1=O` [Example 364, 2-(1-Oxo-5-(4-(3-(3-(trifluoromethyl)phenyl)ureido)phenyl)isoindolin-2-yl)acetic acid]: the inhibition at 1 µM fell in the range of 10 to 50%.

As to `CC(C)[C@@H](C(=O)O)N1Cc2ccc(-c3ccc(NC(=O)c4cccc5ccccc45)cc3)cc2C1=O` [Example 178, (S)-2-(6-(4-(1-Naphthamido)phenyl)-1-oxoisoindolin-2-yl)-3-methylbutanoic acid], the inhibition at 1 µM is 10 to 50%.

For the compound `CC(C)[C@@H](C(=O)O)N1Cc2cc(-c3ccc(NC(=O)c4cccc(Cl)c4)cc3)ccc2C1=O` [Example 315, (S)-2-(5-(4-(3-Chlorobenzamido)phenyl)-1-oxoisoindolin-2-yl)-3-methylbutanoic acid], the inhibition at 1 µM fell in the range of 10 to 50%.

`CC(C)[C@@H](C(=O)O)N1Cc2ccc(-c3ccc(NC(=O)Nc4ccc(F)c(F)c4)cc3)cc2C1=O` [Example 32, (S)-2-(6-(4-(3-(3,4-Difluorophenyl)ureido)phenyl)-1-oxoisoindolin-2-yl)-3-methylbutanoic acid]: the inhibition at 1 µM is 10 to 50%.

In the case of `CC(C)[C@@H](C(=O)O)N1Cc2ccc(-c3ccc(NC(=O)c4c(F)cccc4C(F)(F)F)cc3)cc2C1=O` [Example 126, (S)-2-(6-(4-(2-Fluoro-6-(trifluoromethyl)benzamido)phenyl)-1-oxoisoindolin-2-yl)-3-methylbutanoic acid], the inhibition at 1 µM was 10 to 50%.

Regarding `O=C(Nc1ccc(-c2ccc3c(c2)C(=O)N(C2(C(=O)O)CCCC2)C3)cc1)Nc1cccc(C(F)(F)F)c1` [Example 343, 1-(1-Oxo-6-(4-(3-(3-(trifluoromethyl)phenyl)ureido)phenyl)isoindolin-2-yl)cyclopentanecarboxylic acid], the inhibition at 1 µM was 10 to 50%.

For `CC(C)[C@@H](C(=O)O)N1Cc2ccc(-c3ccc(NC(=O)NC4CCCCC4)cc3)cc2C1=O` [Example 34, (S)-2-(6-(4-(3-Cyclohexylureido)phenyl)-1-oxoisoindolin-2-yl)-3-methylbutanoic acid], the inhibition at 1 µM was > 50%.

Regarding `CCCCOc1ccc(C(=O)Nc2ccc(-c3ccc4c(c3)C(=O)N([C@H](C(=O)O)C(C)C)C4)c(C)c2)cc1` [Example 472, (S)-2-(6-(4-(4-Butoxybenzamido)-2-methylphenyl)-1-oxoisoindolin-2-yl)-3-methylbutanoic acid], the inhibition at 1 µM is > 50%.

With `CCCCOc1ccc(C(=O)Nc2ccc(-c3ccc4c(c3)C(=O)N([C@H](C(=O)O)C(C)C)C4)nc2)cc1` [Example 412, (S)-2-(6-(5-(4-Butoxybenzamido)pyridin-2-yl)-1-oxoisoindolin-2-yl)-3-methylbutanoic acid], the inhibition at 1 µM was > 50%.
